Assays:
[1] = target: T1, CDK9/CycT1 (Homo sapiens (Human), UniProt P50750); experiment: CDK9 kinase assay, ATP concentration at Km (mobility shift, Caliper LC3000); type: biochemical; details: 6 μM ATP, 3 nM CDK9/CycT1; read-out: CDK9 ATP conc. at Km (IC50)
Procedure, shortened: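 3 nM CDK9/CycT1 with 6 µM ATP and 1.5 µM FITC-peptide (HEPES pH 7.2) was preincubated with compound 15 min at 25 °C. Reaction started with 10 mM MgCl2 and ran 90 min at 25 °C. Turnover was measured by mobility-shift separation of phosphorylated and unphosphorylated peptide.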

[2] = test system: phosphorylation of RNA Polymerase II (RNAPII) at the Ser2 site in MCF7 cells; experiment: MCF7 pSer2 RNAPII MOA assay (immunofluorescence); type: cell-based; details: Homo sapiens, MCF7, 6 h, 6-hr treatment, read-out: p-Ser 2 RNAPII (IC50)
Procedure, shortened: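 MCF7 cells (2500/well), plated overnight, were treated for 6 h at 37° C. with CDK9 inhibitors in a 7-point dose response from 3 μM to 0.004 μM. Cells were then fixed, permeabilized and immunostained for Ser2-phospho RNAPII with Alexa Fluor 488 secondary plus DAPI. Per-well phosphorylation was read by microplate cytometry.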

[3] = test system: MV411 cells; experiment: MV411 caspase activity assay (Caspase-Glo 3/7); type: cell-based; details: Homo sapiens, MV4-11, 6 h, 6-hr treatment, caspase 3/7 induction
Procedure, shortened: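 MV411 AML cells (3000/well) were plated overnight, then treated with compound for 6 h at 37 °C. Caspase-3/7 activity was read as luminescence after 30 min with Caspase-Glo 3/7 reagent at room temperature.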

[4] = target: T1, CDK9/CycT1; experiment: CDK9 kinase assay, high ATP concentration (5 mM ATP); type: biochemical; details: 1.5 nM CDK9, read-out: CDK9 High ATP conc. (IC50)
Procedure, shortened: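 Caliper mobility-shift read-out of phosphorylated vs unphosphorylated FITC-peptide (1.5 μM), giving percent turnover. Final 1.5 nM CDK9/CycT1 and 5 mM ATP in 50 mM HEPES pH 7.2, 1 mM DTT, 10 mM MgCl2; compound preincubated 15 min, reaction 90 min at 25° C, stopped with EDTA.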

T1 sequence (P50750 whole entry): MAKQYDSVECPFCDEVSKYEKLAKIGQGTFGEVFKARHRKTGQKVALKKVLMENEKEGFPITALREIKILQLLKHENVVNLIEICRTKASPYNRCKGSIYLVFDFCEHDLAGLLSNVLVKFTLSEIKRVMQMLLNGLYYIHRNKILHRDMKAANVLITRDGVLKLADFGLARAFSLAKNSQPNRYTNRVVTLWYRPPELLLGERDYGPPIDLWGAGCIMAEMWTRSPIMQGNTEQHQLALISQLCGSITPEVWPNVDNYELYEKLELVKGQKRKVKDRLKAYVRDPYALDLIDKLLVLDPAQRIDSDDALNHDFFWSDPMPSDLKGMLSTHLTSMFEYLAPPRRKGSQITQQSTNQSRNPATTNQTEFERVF
T1 sequence (O60563 whole entry partner): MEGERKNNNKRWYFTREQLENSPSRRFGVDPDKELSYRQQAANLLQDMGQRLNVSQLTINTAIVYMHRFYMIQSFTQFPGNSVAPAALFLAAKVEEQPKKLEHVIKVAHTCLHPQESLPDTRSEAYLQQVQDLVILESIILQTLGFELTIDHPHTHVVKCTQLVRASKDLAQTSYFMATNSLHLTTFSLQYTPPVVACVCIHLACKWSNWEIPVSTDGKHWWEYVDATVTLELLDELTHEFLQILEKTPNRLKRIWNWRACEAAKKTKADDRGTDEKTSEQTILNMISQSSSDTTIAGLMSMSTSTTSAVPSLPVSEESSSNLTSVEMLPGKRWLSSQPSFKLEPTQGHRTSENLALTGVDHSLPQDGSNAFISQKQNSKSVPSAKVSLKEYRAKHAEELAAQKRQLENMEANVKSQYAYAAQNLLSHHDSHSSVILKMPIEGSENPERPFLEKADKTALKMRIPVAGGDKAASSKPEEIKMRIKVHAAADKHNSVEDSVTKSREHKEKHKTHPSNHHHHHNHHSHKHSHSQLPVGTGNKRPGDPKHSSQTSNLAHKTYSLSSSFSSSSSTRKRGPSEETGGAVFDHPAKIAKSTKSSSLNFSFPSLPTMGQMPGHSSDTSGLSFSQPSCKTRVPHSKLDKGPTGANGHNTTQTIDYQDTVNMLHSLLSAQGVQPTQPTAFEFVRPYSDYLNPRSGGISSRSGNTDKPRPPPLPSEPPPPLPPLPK

Row | Compound | IC50 [1] | IC50 [2] | IC50 [3] | IC50 [4]
1 | O=C(N[C@@H]1CCC[C@H](C(=O)Nc2cc(-c3cnn4c3CCCC4)c(Cl)cn2)C1)C1COC1 [Example 67, N-((1R,3S)-3-((5-chloro-4-(4,5,6,7-tetrahydropyrazolo[1,5-a]pyridin-3-yl)pyridin-2-yl)carbamoyl)cyclohexyl)oxetane-3-carboxamide] | < 0.003 µM | 0.062 µM | 0.099 µM | 0.019 µM
2 | CC(=O)N[C@@H]1CCC[C@H](C(=O)Nc2cc(-c3cnn4c3CCCCC4)c(F)cn2)C1 [Example 74, (1S,3R)-3-acetamido-N-(5-fluoro-4-(5,6,7,8-tetrahydro-4H-pyrazolo[1,5-a]azepin-3-yl)pyridin-2-yl)cyclohexanecarboxamide] | < 0.003 µM | 0.192 µM | 0.281 µM | 0.039 µM
3 | Cc1cnc(NC(=O)[C@H]2CCC[C@@H](NC(=O)CO)C2)cc1-c1cnn2c1CC(C)(C)C2 [Example 75, (1S,3R)—N-(4-(5,5-dimethyl-5,6-dihydro-4H-pyrrolo[1,2-b]pyrazol-3-yl)-5-methylpyridin-2-yl)-3-(2-hydroxyacetamido)cyclohexanecarboxamide] | < 0.003 µM | 0.067 µM | 0.111 µM | 0.029 µM
4 | Cc1cnc(NC(=O)[C@H]2CCC[C@@H](NC(=O)C3COC3)C2)cc1-c1cnn2c1CC(C)(C)C2 [Example 76, N-((1R,3S)-3-((4-(5,5-dimethyl-5,6-dihydro-4H-pyrrolo[1,2-b]pyrazol-3-yl)-5-methylpyridin-2-yl)carbamoyl)cyclohexyl)oxetane-3-carboxamide] | < 0.003 µM | 0.038 µM | 0.036 µM | 0.009 µM
5 | CC(=O)N[C@@H]1CCC[C@H](C(=O)Nc2cc(-c3cnn4c3CCCC4)c(C)cn2)C1 [Example 77, (1S,3R)-3-acetamido-N-(5-methyl-4-(4,5,6,7-tetrahydropyrazolo[1,5-a]pyridin-3-yl)pyridin-2-yl)cyclohexanecarboxamide] | 0.004 µM | 0.338 µM | 0.543 µM | 0.213 µM
6 | CC(=O)N[C@@H]1CCC[C@H](C(=O)Nc2cc(-c3cnn4c3CCCC4O)c(Cl)cn2)C1 (stereo partly drawn) [Example 78, (1S,3R)-3-acetamido-N-(5-chloro-4-(7-hydroxy-4,5,6,7-tetrahydropyrazolo[1,5-a]pyridin-3-yl)pyridin-2-yl)cyclohexanecarboxamide] | < 0.003 µM | 0.72 µM | 1.23 µM | 0.06 µM
7 | CC(=O)N[C@@H]1CCC[C@H](C(=O)Nc2cc(-c3cn[nH]c3CCCCO)c(Cl)cn2)C1 [Example 78a, (1S,3R)-3-acetamido-N-(5-chloro-4-(5-(4-hydroxybutyl)-1H-pyrazol-4-yl)pyridin-2-yl)cyclohexanecarboxamide] | < 0.003 µM | > 2.63 µM | 7.13 µM | 0.085 µM
8 | CC(=O)N[C@H]1CCC[C@@H](C(=O)Nc2cc(-c3cnn4c3CC(C)(C)C4)c(F)cn2)C1 [Example 81, (1R,3S)-3-acetamido-N-(4-(5,5-dimethyl-5,6-dihydro-4H-pyrrolo[1,2-b]pyrazol-3-yl)-5-fluoropyridin-2-yl)cyclohexanecarboxamide] | 0.008 µM | 0.665 µM | 0.896 µM | 0.554 µM
9 | CC(=O)N[C@@H]1CCC[C@H](C(=O)Nc2cc(-c3cnn4c3CC(C)(C)C4O)c(Cl)cn2)C1 (stereo partly drawn) [Example 82, (1S,3R)-3-acetamido-N-(5-chloro-4-(6-hydroxy-5,5-dimethyl-5,6-dihydro-4H-pyrrolo[1,2-b]pyrazol-3-yl)pyridin-2-yl)cyclohexane-1-carboxamide] | < 0.004 µM | 0.174 µM | 0.124 µM | 0.022 µM
10 | CC(=O)N[C@@H]1CCC[C@H](C(=O)Nc2cc(-c3cn[nH]c3CC(C)(C)CO)c(Cl)cn2)C1 [Example 82a, (1S,3R)-3-acetamido-N-(5-chloro-4-(5-(3-hydroxy-2,2-dimethylpropyl)-1H-pyrazol-4-yl)pyridin-2-yl)cyclohexane-1-carboxamide] | 0.004 µM | > 2.34 µM | 2.26 µM | 0.139 µM

Reference: patent US10717746B2, “Chemical compounds” (ASTRAZENECA AB, priority 2015, dated 2020)
